From patent US5610171A, “Inhibition of metastasis in patients having cancer with pyridyloxazole-2-ones” (Merrell Pharmaceuticals Inc., priority 1995, dated 1997)
“Also recorded” adds a separate entry of the source. Read-outs that look alike come from different tables or passages of the source.

How the values were obtained:
B16F1 cells = assay: Colony forming (clonogenic) assay of B16F1 cells; assay type: cell-based, murine; conditions: 24 hours
Description: One hundred viable cells, as determined by trypan blue exclusion, were plated per 35 mm dish in MEM and incubated for 24 hours at 37° C. Next, 4-propyl-5(4-pyridinyl)-2(3H)-oxazolone was added and incubation continued for an additional 24 hours, after which the dishes were washed twice with Hank's Balanced Salt Solution (HBSS) and replenished with MEM. Ten days later, colonies with a diameter of 2 mm or greater were counted.
B16F1 cells (10^2) were plated and incubated for 24
hours at 37° C. Next, 4-propyl-5(4-pyridinyl)-2(3H)-
oxazolone (compound 1) was added and incubation continued
for an additional 24 hours at which time the drug was
removed. Ten days later, colonies greater than 2 mm in […]

membrane-associated PKC = assay: PKC activity in membranes of pretreated B16F1 cells; assay type: cell-based, murine; conditions: 24 hours
Description: Protein Kinase C Preparation
Cytostolic and membrane-associated PKC was prepared as described in Thomas, T. P., Gopalakrishna, R. and Anderson, W. B. Hormone- and tumor promoter-induced activation of membrane association of protein kinase C in intact cells, Methodsin Enzymology, 141: 399-411, 1987. Sub-confluent B16F1 cultures (4×10^7 cells total) were washed twice with phosphate buffered saline (PBS), pH 7.2 and then twice with buffer A (20 mM Tris, pH 7.5, 2 mM EDTA, 0.5 mM EGTA, […], 2 mM phenylmethylsulfonyl fluoride (PMSF), and 2 μg/ml leupeptin). Cells were scraped from the plates in buffer A, homogenized (40 strokes) and sedimented by centrifugation for 1 hour at 100,000 g. The cytosol was stored on ice while the particulate fraction was washed with buffer B (20 mM Tris, pH 7.2, 2 mM EDTA, 0.5 mM EGTA, and 2 mM (PMSF). The membranes were resuspended with buffer B and homogenized with 10 strokes. Nonidet P-40 (1% final concentration) was added and the mixture was incubated for 30 minutes at 4° C. in a rotating mixer. Nonsolubilized material was removed by centrifugation for 10 minutes at 1400 g. Cytostolic and membrane-bound PKC was partially purified by chromatography over 1 ml columns of DE-52 (Whatman) equilibrated with buffer B. The enzyme was applied to the column and washed with 2×3 ml buffer B. Elution of PKC was then effected by the addition of 2 ml buffer B containing 100 mM NaCl.
PKC was quantitated as described in Thomas et al., ibid. The assay contained 20 mM Tris (pH 7.5), 0.75 mM CaCl, 10 mM magnesium acetate, […] histone III-S, 0.25 μg/ml leupeptin, 100 μM [gamma-^32 p]-ATP (120 cpm/pmol), 0.96 μg/ml phosphatidylserine, and 0.0064 μg/ml 1,2-diolein in a total assay volume of 250 μl. Blanks contained no calcium or phospholipids. Incubation was for 5 minutes at 30° C. at which point the reaction was terminated by the addition of 1 ml 25% trichloroacetic acid (TCA). Samples were applied to Whatman GF/B filters, the tube rinsed twice with 5% TCA and the filter then washed 5 times with 5% TCA.
B16F1 cells were incubated with 4-propyl-5(4-
pyridinyl)-2(3H)-oxazolone for 24 hours at 37° C. PKC was
then prepared and its activity was measured as described in […]

[1] = test system: B16F1 cells / human umbilical vein endothelial cells (HUVEC); assay: Adhesion of B16F1 melanoma cells to endothelial cells (HUVEC); assay type: cell-based, murine B16F1 cells; human HUVEC; conditions: for Adherent B16F1 Cells, Mean +/- SE / activity at 50 µM: 50 μM, 24 hours treatment; for activity at 50 µM: Mus musculus, read-out: B16F1 cells adhered expressed as percent of control
Description: Adhesion of Tumor Cells to Endothelial Cells
Round 15 mm Thermanox tissue culture cover slips from Lux were placed in Corning 12-well, 22 mm diameter tissue culture clusters. HUVEC (2×10^6) were added to each well and grown to confluency. Sub-confluent B16F1 cells were labeled with 1 μCi/ml [^3 H]-thymidine (New England Nuclear, 78.5 Ci/mmol) for 24 hours at 37° C.
In preparation for the adhesion assay, the tissue culture wells containing either HUVEC or no cells were blocked with MEM containing 20 mM HEPES and 1% BSA for 1 hour at 37° C. B16F1 cells were removed from the flasks as described above for adhesion to basement membrane proteins and diluted to a density of 2×10^5 viable cells/ml in MEM (viability determined by trypan blue exclusion).
Blocking solution was aspirated from the wells and 1 ml of cells were added per well and incubated at 37° C. Nonadherent cells were washed from coverslips as described in Wright, P. S., Cross-Doersen, D., McCann, P. P. and Bitonti, A. J., Plasmodium falciparum: a rapid assay for cytoadherence of [^3 H]-hypoxanthine-labeled infected erythrocytes to human melanoma cells, Exp. Parasitol., 71: 346-349, 1990. Coverslips were retrieved from the well with forceps and dipped 10 times into a beaker of 100 ml MEM. Coverslips were placed into scintillation vials and counted in 10 ml Beckman Ready Protein.
B16F1 cells were treated with 4-propyl-5(4-pyridinyl)-
(3H)-oxazolone for 24 hours at 37° C. Cells were then
harvested and added to wells containing confluent HUVEC
cells and incubated for the time indicated at 37° C. Details
are given in Materials and Methods.

fibrinogen = assay: Adhesion of B16F1 cells to fibrinogen; assay type: cell-based; conditions: 24 hours
Description: (§1) Adhesion of B16F1 Cells to Basement Membrane Proteins
(§2) Adhesion proteins (2 μg/well) were coated onto Immulon I Removawells from Dynatech and incubated for 1 hour at 37° C. The wells were then blocked for 1 hour with 400 μl PBS, pH 7.2 containing 1% bovine serum albumin (BSA) at 37° C. Prior to addition of the cell suspension, the blocking solution was aspirated.
(§3) Sub-confluent cells were washed twice with HBSS and removed form flasks by incubation for 10 minutes at 37° C. with PBS (pH 7.2), 2 mM EDTA, and 1% BSA. The cells were washed twice with MEM containing 20 mM HEPES and 0.1% BSA and resuspended in the same medium to give a cell density of […].
(§4) Cells were added to wells in 50 μl (5×10^4 cells) and incubated at 37° C. The wells were aspirated and washed three times with 400 μl PBS (pH 7.2) containing 0.1% BSA. Wells were detached and counted in 5 ml Beckman Ready Protein. Blanks were not coated with protein but were blocked with BSA as described above.

collagen IV = assay: Adhesion of B16F1 cells to collagen IV; assay type: cell-based; conditions: 24 hours
Description: as §1, §2, §3, §4

laminin = assay: Adhesion of B16F1 cells to laminin; assay type: cell-based; conditions: 24 hours
Description: as §1, §2, §3, §4

[2] = test system: extracellular matrix/basement membrane proteins; assay: Adhesion of B16F1 cells to extracellular matrix/basement membrane proteins; assay type: cell-based, murine
Description: as §1, §2, §3, §4

CCCc1[nH]c(=O)oc1-c1ccncc1 [Compound 1, 4-propyl-5(4-pyridinyl)-2(3H)-oxazolone]
Colonies per dish, Mean +/- SE (B16F1 cells; 10 μM): 27 +/- 2 colonies per dish
Colonies per dish, Mean +/- SE (B16F1 cells; 20 μM): 34 +/- 1 colonies per dish
Colonies per dish, Mean +/- SE (B16F1 cells; 50 μM): 29 +/- 1 colonies per dish
viability of treated cells (clonogenic assay) (B16F1 cells): equivalent to untreated cells
PKC Activity Ratio membrane/cytosol (membrane-associated PKC; 5 μM): 0.29
PKC Activity, membrane (membrane-associated PKC; 5 μM): 2151 pmol per min per mg protein
PKC Activity Ratio membrane/cytosol (membrane-associated PKC; 25 μM): 0.61
PKC Activity, membrane (membrane-associated PKC; 25 μM): 1511 pmol per min per mg protein
PKC Activity Ratio membrane/cytosol (membrane-associated PKC; 50 μM): 0.27
PKC Activity, membrane (membrane-associated PKC; 50 μM): 1000 pmol per min per mg protein
adherence to HUVEC [1]: decreased adhesion; also recorded: less adherent
Adherent B16F1 Cells, Mean +/- SE ([1]; 5 min adhesion): 4,513 cells
Adherent B16F1 Cells, Mean +/- SE ([1]; 10 min adhesion): 7,828 cells
Adherent B16F1 Cells, Mean +/- SE ([1]; 20 min adhesion): 48,750 cells
Adherent B16F1 Cells, Mean +/- SE ([1]; 30 min adhesion): 92,084 cells
Adherent B16F1 Cells, Mean +/- SE ([1]; 60 min adhesion): 136,950 cells
activity at 50 µM ([1]; B16-F1, 5 min, 5 min adhesion): 126%
activity at 50 µM ([1]; B16-F1, 10 min, 10 min adhesion): 39%
activity at 50 µM ([1]; B16-F1, 20 min, 20 min adhesion): 60%
activity at 50 µM ([1]; B16-F1, 0.5 h, 30 min adhesion): 71%
activity at 50 µM ([1]; B16-F1, 1 h, 60 min adhesion): 110%
adhesion to fibrinogen (fibrinogen): most sensitive to inhibition
adhesion to collagen IV (collagen IV): most sensitive to inhibition
adherence to laminin (laminin): inhibited minimally or not at all
attachment to extracellular matrix/basement membrane proteins ([2]; 24 hours): decreased adhesion to some basement membrane proteins; also recorded: less adherent than untreated cells
potency for inhibition of adhesion relative to H-7 ([2]; versus H-7): more potent than H-7
potency for inhibition of adhesion relative to staurosporine ([2]; versus staurosporine): significantly less potent than staurosporine
